Consider five molecules from patent US9328158B2, “H. pylori lipopolysaccharide outer core epitope” (National Research Council of Canada, priority 2009, dated 2016).

Converted amounts (≈) assume the structure as drawn.

For the test, the target named is 1C4F9 mAb. Nature of the test: Inhibition ELISA of 1C4F9 mAb binding to adsorbed LPS. Details: species or system mouse. The following applies: Concentration of the oligosaccharide or LPS required for 50% inhibition; purified 1C4F9. The protocol:
Studies of the specificity of the glucan-specific antibody were carried out using a series of linear oligosaccharides consisting of consecutive α1,6-linked glucose residues Glc→[α(1→6)Glc]n=1-6 and selective purified H. pylori LPS. For inhibition ELISA, serial dilutions of linear α1,6-linked glucose-containing oligosaccharides from isomalto-series [Glcα1→(6Glcα1→)n=1-6] (USBIOLOGICALS™, Swampscott, […].) or H. pylori 26695, O:3 and PJ2 LPS inhibitors were prepared and mixed with previously prepared dilutions of purified 1 C4F9 that gave an OD450=1. […] After this step, the indirect ELISA procedure was followed as described in Example 6.
A general note: In an ELISA, binding on a coated surface is turned into a signal by an enzyme label.
What is called IC50 is the point on the concentration scale where inhibition reaches its midpoint. In turn, `OCC1OC(OCC2OC(OCC3OC(OCC4OC(OCC5OC(OCC6OC(OCC7OC(O)C(O)C(O)C7O)C(O)C(O)C6O)C(O)C(O)C5O)C(O)C(O)C4O)C(O)C(O)C3O)C(O)C(O)C2O)C(O)C(O)C1O` (centres unmarked) [Isomaltoheptaose] registered an IC50 of 210 µg/mL (≈ 182 µM).
The same measure for `OCC1OC(OCC2OC(OCC3OC(OCC4OC(OCC5OC(OCC6OC(O)C(O)C(O)C6O)C(O)C(O)C5O)C(O)C(O)C4O)C(O)C(O)C3O)C(O)C(O)C2O)C(O)C(O)C1O` (centres unmarked) [Isomaltohexaose]: 290 µg/mL (≈ 293 µM); for `OCC1OC(OCC2OC(OCC3OC(OCC4OC(OCC5OC(O)C(O)C(O)C5O)C(O)C(O)C4O)C(O)C(O)C3O)C(O)C(O)C2O)C(O)C(O)C1O` (centres unmarked) [Isomaltopentaose]: 460 µg/mL (≈ 555 µM).
The same measure for `OCC1OC(OCC2OC(OCC3OC(OCC4OC(O)C(O)C(O)C4O)C(O)C(O)C3O)C(O)C(O)C2O)C(O)C(O)C1O` (centres unmarked) [Isomaltotetraose]: 1,600 μg/mL.
Next, `OCC1OC(OCC2OC(OCC3OC(O)C(O)C(O)C3O)C(O)C(O)C2O)C(O)C(O)C1O` (centres unmarked) [Isomaltotriose]: 10,000 μg/mL.
